Where a name gives a salt, the structure may show the parent alone.

The target of the first assay is T1, ENPP1 (Homo sapiens, UniProt P22413).
T1 sequence (P22413 1-925): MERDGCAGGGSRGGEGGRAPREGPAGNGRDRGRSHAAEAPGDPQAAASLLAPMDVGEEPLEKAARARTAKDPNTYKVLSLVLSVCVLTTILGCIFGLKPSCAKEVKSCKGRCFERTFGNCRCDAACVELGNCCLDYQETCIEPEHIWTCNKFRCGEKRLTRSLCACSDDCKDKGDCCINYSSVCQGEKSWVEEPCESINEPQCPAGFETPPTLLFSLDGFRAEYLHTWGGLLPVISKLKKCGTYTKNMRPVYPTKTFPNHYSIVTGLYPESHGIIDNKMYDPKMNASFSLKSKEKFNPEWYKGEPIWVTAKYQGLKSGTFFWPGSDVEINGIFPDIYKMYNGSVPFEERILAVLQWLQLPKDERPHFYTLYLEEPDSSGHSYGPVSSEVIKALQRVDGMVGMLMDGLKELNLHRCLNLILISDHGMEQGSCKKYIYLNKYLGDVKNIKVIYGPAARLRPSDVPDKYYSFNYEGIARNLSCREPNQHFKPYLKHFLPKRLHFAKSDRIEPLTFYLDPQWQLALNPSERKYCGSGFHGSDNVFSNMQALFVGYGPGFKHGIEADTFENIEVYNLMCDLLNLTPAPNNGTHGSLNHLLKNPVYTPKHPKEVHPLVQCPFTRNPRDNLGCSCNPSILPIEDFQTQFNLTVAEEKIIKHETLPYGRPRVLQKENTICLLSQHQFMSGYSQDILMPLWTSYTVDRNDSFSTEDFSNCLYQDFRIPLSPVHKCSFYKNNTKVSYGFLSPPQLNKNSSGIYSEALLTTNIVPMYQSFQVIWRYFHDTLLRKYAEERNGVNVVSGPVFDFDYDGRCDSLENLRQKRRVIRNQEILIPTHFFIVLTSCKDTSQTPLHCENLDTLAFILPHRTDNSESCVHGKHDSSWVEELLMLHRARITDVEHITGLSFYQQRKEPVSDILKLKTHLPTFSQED
Description: Measurement of pNP-TMP hydrolysis by ENPP1 (enzyme activity assay, absorbance at 405 nm). It counts as biochemical. Conditions: substrate pNP-TMP 500 μM, KM 232 μM; Ki from IC50 by Cheng-Prusoff; read-out: Ki (pNP-TMP). As for the experimental part: Measurement of pNP-TMP Hydrolysis by ENPP1
p-Nitrophenyl thymidine 5′-monophosphate (pNP-TMP) is a synthesized substrate for ENPP1. The ENPP1 enzyme activity assay with pNP-TMP substrate was conducted as follows:
Incubation of ENPP1 with compounds was set at 25° C. for 10 min. […] For each compound dilution, wells with assay buffer (50 mM Tris-HCl, pH8.8, 250 mM NaCl, 0.1 mg/ml BSA, 1% DMSO) only but no ENPP1 were included as controls for subtraction of test compound derived absorbance at 405 nm.
Absorbance at 405 nm was recorded immediately in kinetic mode by PerkinElmer 2300 Enspire multimode plate reader.
For each inhibitor, the specific ENPP1 activity was calculated using the following equation: ENPP1 activity (pmol/min/μg)=Adjusted Vmax (OD405 nm/min)×conversion factor (pmol/OD405 nm)/amount of enzyme (μg)
Adjusted Vmax=V0×(Km+(S))/(S).
V0=(OD405 nm with ENPP1−OD405 nm ENPP1 blank)/minutes. OD405 nm was plotted, with blank subtracted, against time (minutes), the initial linear rate is V0. […]
The slope is the conversion factor. The percent ENPP1 activity for each sample was calculated using the following equation: % enzyme activity=sample enzyme activity/MAX Activity×100%.
To determine the IC50 for each compound, compound concentration values and percent enzyme activity values were inserted into GraphPad Prism (GraphPad Prism version 7.0 for Windows, GraphPad Software, La Jolla California USA, www.graphpad.com), and Prism's Transform analysis was used to convert the x-axis values (compound concentration) to logarithms. A sigmoidal variable slope nonlinear regression analysis was performed using the following equation: Y=Bottom+(Top−Bottom)/(1+10^[…])).
Take `OB(O)c1ccc(Cn2ccc3c(O)nccc32)cc1` [Compound 9, (4-((4-hydroxy-1H-pyrrolo[3,2-c]pyridin-1-yl)methyl)phenyl)boronic acid]: the Ki was below 0.01 µM. Same read-out and setting: the value for `N#Cc1ccc2c(ncn2Cc2ccc(B(O)O)cc2)n1` [Compound 70, 4-((5-cyanoimidazo[4,5-b]pyridin-1-yl)methyl)phenylboronic acid] was below 0.01 µM; that for `O=c1[nH]cnc2c1c(F)cn2Cc1ccc(B(O)O)cc1` [Compound 63, (4-((5-fluoro-4-oxo-3,4-dihydro-7H-pyrrolo[2,3-d]pyrimidin-7-yl)methyl)phenyl) boronic acid] was below 0.1 µM; that for `COc1cccc2c1nc(C)n2Cc1ccc(B(O)O)cc1` [Compound 95, 4-((4-methoxy-2-methyl-1,3-benzodiazol-1-yl)methyl) phenylboronic acid] was below 0.1 µM.

With `NC(=O)c1ccc2c(ncn2Cc2ccc(B(O)O)cc2)c1N` [Compound 105, 4-((4-amino-5-carbamoyl-1,3-benzodiazol-1-yl)methyl)phenylboronic acid], the Ki was below 0.1 µM.

Turning to `NC(=O)c1ccc2c(c1)ncn2Cc1ccc(B(O)O)cc1` [Compound 17, 4-((5-carbamoyl-1,3-benzodiazol-1-yl)methyl)phenylboronic acid trifluoroacetic acid salt], the inhibition constant Ki was below 0.01 µM.

The test system of the next assay is HGS tumor model. Description: Anti-tumor activity in HGS tumor model. Type of assay: in vivo. Conditions: animals treated with 20/kg of compound, day 42 after inoculation (vehicle group 645).
Description: […]
Consider `C=CC(=O)N1CCN(CCCn2c(=O)c(-c3c(Cl)c(OC)cc(OC)c3Cl)cc3cnc(NC)nc32)CC1` [8-(3-(4-acryloylpiperazin-1-yl)propyl)-6-(2,6-dichloro-3,5-dimethoxyphenyl)-2-(methylamino)pyrido[2,3-d]pyrimidin-7(8H)-one], for which the tumor size amounted to 55 mm3.
